Measurements published in patent US5512479A, “Method of degrading volatile organochlorides and remediation thereof” (priority 1993, dated 1996).

Tests used:
[1] = tested on: toluene monooxygenase (TMO); assay type: cell-based, Pseudomonas mendocina KR-1; conditions: for TMO Activity (DPM): cells grown 48 hr on growth substrate (Table 1); for % Activity: relative to toluene-grown cells (Table 1)
Procedure: (§1) Radioactivity in the bottles was enumerated by placing the bottles in a liquid scintillation counter. Results were recorded as disintegrations per minute (DPM). […] Non-volatile products were not evaporated from the silica gel during the drying phase, and were enumerated by scintillation counting. Thus, the greater the DPMs, the greater the TMO activity.
(§2) To determine the ability of alkanes to assist in the induction of TMO activity in P. mendocina KR-1 and to subsequently degrade TCE, the organism was grown in basal salts medium with hexane, octane and pentane as sole carbon and energy sources.
Cells were grown for 48 hr, washed with BSM, then suspended to an OD550 of 1.0 in BSM. Cells were incubated for 1 hr to allow removal of most residual alkane. They were then subjected to TMO and TCE assays.

[2] = tested on: toluene monooxygenase (TMO); experiment: TCE induced TMO activity with different growth substrates (14C-toluene assay); assay type: cell-based, Pseudomonas mendocina KR-1; conditions: 40 μM TCE; for factor of TMO activity increase after addition of the substrate (FIG. 4): 3 g/L glutamate, 2 g/L glucose, or 20 mM lactate added after 2.75 hours; for induced TMO activity increase (FIG. 4): growth substrate run, 6 hour period
Procedure: as §1
(§3) The effect of three growth substrates on TCE induced TMO activity was also established through a series of four runs. Cells were grown overnight as previously described for non-inducing growth: 30° C., 100 RPM, 50 mL cells in 125 mL flask in BSM with either 3 g/L sodium glutamate, 20 mM lactate, or 2 g/L glucose. The cultures were then washed and suspended to an O.D.550 =1.0 in BSM plus 0.3 g/L glutamate, 2.0 mM lactate, and 0.2 g/L glucose, respectively. TCE was then added to a final concentration of 40 μM, vials were sealed, and shaken at 30° C. […] At timed intervals, 10 μL of the air above the reaction mixture was removed from the vials by using a gas-tight syringe, and injected onto a gas chromatograph (Varian 3400; Star Data System) equipped with a 30M VOCOL column (Supelco Inc.: c0.53 mm ID, […] film, helium carrier at 7 mL/min, 100° C. isothermal, injector at 225° C.) and an electron capture detector (GC-ECD; 300° C.) to quantify the TCE remaining in the vial. Relative TCE concentration was enumerated as area counts, greater area counts representing greater amounts of TCE remaining in the vials. Five cell suspensions as described above were supplemented with 1 μM, 10 μM, 20 μM, 40 μM and 80 μM of TCE. A control run not shown in FIG. 3, and performed in the same manner as the other five runs, contained only DMF. Cell suspensions were incubated at 30° C. with shaking, and TMO activity, as described above with respect to Example 1, was determined at timed intervals.

[3] = tested on: Pseudomonas mendocina KR-1; experiment: TCE degradation (TCE bottle assay, gas chromatography); assay type: cell-based
Procedure: as §3
as §2, with “sources. TMO activity was determined by using the ^14 C-toluene assay and TCE degradation was measured by using a TCE bottle assay, both as described previously.” for “sources.”
Finally, alkane grown cells were analyzed for their ability to degrade TCE by using the TCE bottle assay and cells suspended in BSM to OD550 =2.0. […] Loss of TCE in the control (glucose) sample is thought to be due to induction of TMO by TCE.

[4] = tested on: Pseudomonas cepacia; conditions: cited from earlier work
[5] = tested on: Pseudomonas putida; conditions: only upon induction by toluene or phenol; cited from earlier work
[6] = tested on: toluene monooxygenase (TMO); experiment: TMO activity induced by TCE (14C-toluene assay); assay type: cell-based, Pseudomonas mendocina KR-1
Procedure: Cells were first grown overnight under non-inducing conditions. Specifically, cells were grown by suspending a small amount of cells from agar plate, or broth media, in a 125 mL flask containing 50 mL of basal salts medium (BSM) containing 3 g/L sodium glutamate with or without 0.1 g/L casamino acids (Difco). Cells were placed on a rotary shaker and shaken at 100 rpm and 30° C. for 16-24 hr. The cells were then centrifuged and washed with BSM. They were subsequently suspended in BSM and glutamate (3 g/L) to an optical density at 550 nm (OD550) of 1.0. Ten mL of cell suspension was added to a 50 mL serum vial, and 10 μL TCE (40 mM) dissolved in dimethylformamide (DMF) was added to a final concentration of 40 μM.
Comparison non-induced samples were prepared by adding only dimethylformamide (10 μL) to replicate 10 mL cell suspensions. The comparison samples contained no TCE. All sample vials were sealed with teflon-coated crimp seals and the cell suspensions were shaken at 25° C.
as §1
Another set of experiments containing five runs was performed to determine the preferred concentration of TCE used to induce the TMO genes in P. mendocina KR-1. TCE degradation was measured by suspending cells in BSM to an OD550 of 1.0. 10 mL of cells were added to 50 mL serum vials and 10 μL of TCE in dimethylformamide was added (final TCE concentration: 1-80 μM). Vials were sealed with teflon-lined crimp seals and shaken at 30° C. At timed intervals, 250 μl of sample was removed from each sample by using a syringe. The sample was mixed with 250 μl BSM to generate a final volume of 0.5 mL and OD550 of 0.5. ^14 C-Toluene assays were then performed on the samples as described previously.

[7] = tested on: toluene monooxygenase (TMO); assay type: cell-based, Pseudomonas mendocina KR-1; conditions: for induction of TMO, in words: substrate added to glutamate-grown cells
Procedure: as §1
A TMO assay was performed on the cells. Then 5 ml of the culture was added to each of four 50 mL serum vials. […] The vials were incubated at 30° C. and sampled, by using a glass syringe, at 1.5 hr and 2.5 hr after substrate addition.

Question: Which results are given for CCCCCCCC [Octane]?
Answer: TMO Activity (DPM) [1]: 3915 DPM; % Activity [1]: 23%

Question: Which “TMO activity up to 2.75 hours (FIG. 4)” value ([2]; before addition of further substrate) does the source give for CC(O)C(=O)O (stereo not shown) [lactate] here?
Answer: Its value is “little or no TMO activity”.

Question: What about the “factor of TMO activity increase after addition of the substrate (FIG. 4)” value (“factor of TMO activity increase” below) [2] of the same compound?
Answer: Its value is “at least 5”.

Question: Which “TMO Activity (DPM)” value [1] does the source give for CCCCCC [Hexanes] here?
Answer: The value was 4889 DPM.

Question: What about the “% Activity” value [1] of the same compound?
Answer: The value was 29%.

Question: What does the source list for ClC=C(Cl)Cl [TCE, trichloroethylene]?
Answer: percentage of TCE remaining (FIG. 6) ([3]; 6 hours, glucose (2 g/L) added after about 3 hours, 40 µM): about 10%; loss of TCE in the control (glucose) sample (FIG. 7) ([3]; OD550 = 2.0, glucose-grown control): Loss of TCE; TCE degradation (FIG. 6) ([3]; absent any additional inducing substrates): TCE degradation occurs simply by contacting Pseudomonas mendocina cells with TCE; TCE concentrations in response to TMO induction (FIG. 5) ([3]; sealed vials, 6 hours): decreased in response to TMO induction; TCE degradation by Pseudomonas cepacia G4 ([4]; grown without an inducer): unable to degrade TCE; TCE degradation by Pseudomonas cepacia 5223-PR1 ([4]; recombinant strain): did display the ability to degrade TCE; TMO induction by TCE in glutamate- and glucose-grown cells [2]: rapid induction; TCE degradation by Pseudomonas putida PpF1 and B5 [5]: some ability to degrade TCE; TMO activity (FIG. 3) ([6]; 1 μM TCE, 4 hour test period): very little TMO activity was measured; TMO activity (FIG. 3) ([6]; 10 μM or more of TCE, after the first half hour): increased dramatically after the first half hour; induced TMO activity over 30 minutes (FIG. 1) ([6]; 40 μM TCE, 25° C., 30 minute period): increased dramatically over the 30 minute time period; TMO activity (FIG. 2) ([6]; 40 μM TCE, first 75 minutes): over 3,000 DPM; further increase of TMO activity (FIG. 2) ([6]; 40 μM TCE, remaining 4 1/2 to 5 hours of six hour experiment): almost two fold; rate of increase of TMO activity (FIG. 1) ([6]; 40 μM TCE, ten minute time interval): substantially two fold rate; induction of TMO activity (FIG. 3) ([6]; 10 and 20 μM TCE): best results with respect to induction of TMO activity; induction of TMO activity (FIG. 3) ([6]; concentrations higher than 10 and 20 μM TCE): quite effective

Question: Which “induced TMO activity increase (FIG. 4)” value [2] does the source give for N[C@@H](CCC(=O)[O-])C(=O)[O-].[Na+].[Na+] [Gultamate, sodium glutamate, reference compound] here?
Answer: The value was “up to 3,500 DPM”.

Question: And the “factor of TMO activity increase” value [2]?
Answer: The value was “at least 5”.

Question: And the “TMO Activity (DPM)” value [1]?
Answer: The value was 123 DPM.

Question: What about the “% Activity” value [1] of the same compound?
Answer: Its value is 0.7%.

Question: With Cc1ccccc1 [Toluene, reference compound] as the compound, how does the “induction of TMO, in words” value [7] read?
Answer: The value was “only limited activity was observed”.

Question: And the “% Activity” value [1]?
Answer: The value was 100%.

Question: Which “effect of growth substrate on TCE degradation (FIG. 5)” value ([3]; 40 μM TCE, 6 hours) does the source give for glucose here?
Answer: Its value is “greatest effect on TCE degradation”.

Question: What about the “induced TMO activity increase (FIG. 4)” value [2] of the same compound?
Answer: The value was “under 5,000 DPM”.

Question: And the “factor of TMO activity increase” value [2]?
Answer: Its value is “at least 5”.

Question: With CCCCC [Pentane] as the compound, how does the “TMO Activity (DPM), T = 1.5 hr.” value ([7]; 1.5 hr after substrate addition, 30° C. (Table 2)) read?
Answer: Its value is 2480 DPM.

Question: And the “TMO Activity (DPM), T = 2.5 hr.” value ([7]; 2.5 hr after substrate addition, 30° C. (Table 2))?
Answer: The value was 1293 DPM.

Question: What about the “TMO Activity (DPM), T = 0” value ([7]; T = 0, before substrate addition (Table 2)) of the same compound?
Answer: Its value is 126 DPM.

Question: And the “TMO Activity (DPM), T = 1.5 hr., killed cells” value ([7]; killed (100 μl 1M HCl) + pentane, 1.5 hr (Table 2))?
Answer: The value was 128 DPM.

Question: What about the “TMO Activity (DPM), T = 2.5 hr., killed cells” value ([7]; killed (100 μl 1M HCl) + pentane, 2.5 hr (Table 2)) of the same compound?
Answer: Its value is 121 DPM.

Question: And the “TMO Activity (DPM), T = 0, killed cells” value ([7]; killed (100 μl 1M HCl) + pentane, T = 0 (Table 2))?
Answer: The value was 126 DPM.

Question: And the “induction of TMO, in words” value [7]?
Answer: Its value is “induction of TMO by pentane”.

Question: And the “TMO Activity (DPM)” value [1]?
Answer: Its value is 2079 DPM.

Question: What about the “% Activity” value [1] of the same compound?
Answer: The value was 12%.
